Values of other authors in US20070105756A1 (priority 2005, published 2007).

System: sensitive individuals
Details: oral route

NCCc1c[nH]cn1 [histamine]
histamine concentration known to be biologically active: > 5 nM
